Source: patent US20130165641A1, “6,11-BRIDGED BIARYL MACROLIDES” (Enanta Pharmaceuticals, Inc., priority 2007, published 2013)
Values after ≈ are worked out from the molar mass of the structure shown.

Tested on: MRSA
Experiment: MIC by micro-dilution method, MRSA isolates
Type: cell-based, Staphylococcus aureus
Settings: compounds of Formula XVI; for MIC MRSA 7662: MRSA isolate 7662; for MIC MRSA 33591: MRSA isolate 33591
Description: Susceptibility tests can be used to quantitatively measure the in vitro activity of an antimicrobial agent against a given bacterial isolate. Compounds are tested for in vitro antibacterial activity by a micro-dilution method. Minimal Inhibitory Concentration (MIC) is determined in 96 well microtiter plates utilizing the appropriate broth medium for the observed bacterial isolates. […] The diluted compounds (2 μl/well) are then transferred into sterile, uninoculated medium (0.2 mL) by use of a 96 fixed tip-pipetting station. The inoculum for each bacterial strain is standardized to approximately 5×10^5 CFU/mL by optical comparison to a 0.5 McFarland turbidity standard. The plates are inoculated with 10 μl/well of adjusted bacterial inoculum. The 96 well plates are covered and incubated at 35+/−2° C. for 24 hours in ambient air environment. Following incubation, plate wells are visually examined by Optical Density measurement for the presence of growth (turbidity). The lowest concentration of an antimicrobial agent at which no visible growth occurs is defined as the MIC.
All in vitro testing follows the guidelines described in the Approved Standards M7-A7 protocol, published by the Clinical Laboratory Standards Institute (CLSI).

Row | Structure (SMILES) | MIC MRSA 7662 [µg/mL] | MIC MRSA 33591 [µg/mL]
1 | CC[C@H]1OC(=O)[C@@](C)(F)C(=O)[C@H](C)[C@@H](O[C@@H]2O[C@H](C)C[C@H](N(C)C)[C@H]2O)[C@@]2(C)C[C@@H](C)C(=NC(C)=O)[C@H](C)[C@@H](OC/C(=N\OCc3ccc(-n4ccc(N)n4)cc3OC)CO2)[C@]1(C)O [Example 99] | 8 (≈ 8.86 µM) | 8 (≈ 8.86 µM)
2 | CC[C@H]1OC(=O)[C@@](C)(F)C(=O)[C@H](C)[C@@H](O[C@@H]2O[C@H](C)C[C@H](N(C)C)[C@H]2O)[C@@]2(C)C[C@@H](C)C(=NC(C)=O)[C@H](C)[C@@H](OC/C(=N\OCc3coc(-c4cccc(N)n4)n3)CO2)[C@]1(C)O [Example 126] | 4 (≈ 4.57 µM) | 8 (≈ 9.14 µM)
3 | CCC1OC(=O)C(C)(F)C(=O)C(C)C(OC2OC(C)CC(N(C)C)C2O)C2(C)CC(C)C(=NC(C)=O)C(C)C(OCC(=NOCc3ccc(-n4ccc(N)n4)cc3)CO2)C1(C)O (stereo not shown) [Example 81] | 4 (≈ 4.58 µM) | 4 (≈ 4.58 µM)
4 | CCC1OC(=O)C(C)(F)C(=O)C(C)C(OC2OC(C)CC(N(C)C)C2O)C2(C)CC(C)C(=NC(C)=O)C(C)C(OCC(=NOCc3ccc(-n4ccc(N)n4)nc3)CO2)C1(C)O (stereo not shown) [Example 78] | 8 (≈ 9.15 µM) | 8 (≈ 9.15 µM)
5 | CCC(=O)N=C1[C@H](C)C[C@@]2(C)OC/C(=N/OCc3ccc(-c4nc(N)cs4)cc3)CO[C@H]([C@H]1C)[C@](C)(O)[C@@H](CC)OC(=O)[C@@](C)(F)C(=O)[C@H](C)[C@H]2O[C@@H]1O[C@H](C)C[C@H](N(C)C)[C@H]1O [Example 120] | 4 (≈ 4.42 µM) | 4 (≈ 4.42 µM)
6 | CC[C@H]1OC(=O)[C@@](C)(F)C(=O)[C@H](C)[C@@H](O[C@@H]2O[C@H](C)C[C@H](N(C)C)[C@H]2O)[C@@]2(C)C[C@@H](C)C(=NC(=O)C(C)C)[C@H](C)[C@@H](OC/C(=N\OCc3ccc(-c4nc(N)cs4)cn3)CO2)[C@]1(C)O [Example 109] | 2 (≈ 2.18 µM) | 2 (≈ 2.18 µM)
7 | CCC1OC(=O)C(C)(F)C(=O)C(C)C(OC2OC(C)CC(N(C)C)C2O)C2(C)CC(C)C(=NC(=O)C(C)C)C(C)C(OCC(=NOCc3ccc(-n4ccc(N)n4)nc3)CO2)C1(C)O (stereo not shown) [Example 86] | 4 (≈ 4.43 µM) | 4 (≈ 4.43 µM)
8 | CCC1OC(=O)C(C)(F)C(=O)C(C)C(OC2OC(C)CC(N(C)C)C2O)C2(C)CC(C)C(=NC(C)=O)C(C)C(OCC(=NOCc3ccc(-n4ccc(N)n4)cc3Cl)CO2)C1(C)O (stereo not shown) [Example 89] | 4 (≈ 4.41 µM) | 4 (≈ 4.41 µM)
9 | CC[C@H]1OC(=O)[C@@](C)(F)C(=O)[C@H](C)[C@@H](O[C@@H]2O[C@H](C)C[C@H](N(C)C)[C@H]2O)[C@@]2(C)C[C@@H](C)C(=NC(=O)C(C)C)[C@H](C)[C@@H](OC/C(=N\OCc3ccc(-c4nccc(N)n4)cn3)CO2)[C@]1(C)O [Example 114] | 4 (≈ 4.38 µM) | 8 (≈ 8.75 µM)
10 | CCC1OC(=O)C(C)(F)C(=O)C(C)C(OC2OC(C)CC(N(C)C)C2O)C2(C)CC(C)C(=NC(C)=O)C(C)C(OCC(=NOCc3ccc(-n4ccc(N)n4)cn3)CO2)C1(C)O (stereo not shown) [Example 82] | 4 (≈ 4.58 µM) | 8 (≈ 9.15 µM)
11 | CCC(=O)N=C1[C@H](C)C[C@@]2(C)OC/C(=N/OCc3ccc(-c4nsc(N)n4)nc3)CO[C@H]([C@H]1C)[C@](C)(O)[C@@H](CC)OC(=O)[C@@](C)(F)C(=O)[C@H](C)[C@H]2O[C@@H]1O[C@H](C)C[C@H](N(C)C)[C@H]1O [Example 129] | 4.00 (≈ 4.41 µM) | 8.00 (≈ 8.83 µM)
12 | CC[C@H]1OC(=O)[C@@](C)(F)C(=O)[C@H](C)[C@@H](O[C@@H]2O[C@H](C)C[C@H](N(C)C)[C@H]2O)[C@@]2(C)C[C@@H](C)C(=NC(C)=O)[C@H](C)[C@@H](OC/C(=N\OCc3ccc(-c4nc(N)cs4)cn3)CO2)[C@]1(C)O [Example 101] | 2 (≈ 2.24 µM) | 4 (≈ 4.49 µM)
13 | CCC1OC(=O)C(C)(F)C(=O)C(C)C(OC2OC(C)CC(N(C)C)C2O)C2(C)CC(C)C(=NC(=O)C3CC3)C(C)C(OCC(=NOCc3ccc(-n4ccc(N)n4)cc3)CO2)C1(C)O (stereo not shown) [Example 93] | 8 (≈ 8.9 µM) | 8 (≈ 8.9 µM)
14 | CC[C@H]1OC(=O)[C@@](C)(F)C(=O)[C@H](C)[C@@H](O[C@@H]2O[C@H](C)C[C@H](N(C)C)[C@H]2O)[C@@]2(C)C[C@@H](C)C(=NC(=O)C(C)C)[C@H](C)[C@@H](OC/C(=N\OCc3coc(-c4cccc(N)n4)n3)CO2)[C@]1(C)O [Example 118] | 4 (≈ 4.43 µM) | 8 (≈ 8.86 µM)
15 | [2H]C([2H])([2H])C([2H])([2H])C(=O)N=C1[C@H](C)C[C@@]2(C)OC/C(=N/OCc3ccc(-c4nc(N)cs4)cn3)CO[C@H]([C@H]1C)[C@](C)(O)[C@@H](CC)OC(=O)[C@@](C)(F)C(=O)[C@H](C)[C@H]2O[C@@H]1O[C@H](C)C[C@H](N(C)C)[C@H]1O [Example 135] | 2.00 (≈ 2.2 µM) | 2.00 (≈ 2.2 µM)
16 | CCCC(=O)N=C1C(C)CC2(C)OCC(=NOCc3ccc(-c4cccc(N)n4)cn3)COC(C1C)C(C)(O)C(CC)OC(=O)C(C)(F)C(=O)C(C)C2OC1OC(C)CC(N(C)C)C1O (stereo not shown) [Example 76] | 4 (≈ 4.38 µM) | 4 (≈ 4.38 µM)
17 | CCC(=O)N=C1[C@H](C)C[C@@]2(C)OC/C(=N/OCc3ncc(-c4cccc(N)n4)o3)CO[C@H]([C@H]1C)[C@](C)(O)[C@@H](CC)OC(=O)[C@@](C)(F)C(=O)[C@H](C)[C@H]2O[C@@H]1O[C@H](C)C[C@H](N(C)C)[C@H]1O [Example 134] | 4.00 (≈ 4.5 µM) | 8.00 (≈ 9 µM)
18 | CCC1OC(=O)C(C)(F)C(=O)C(C)C(OC2OC(C)CC(N(C)C)C2O)C2(C)CC(C)C(=NC(C)=O)C(C)C(OCC(=NOCc3ccc(-n4ccc(N)n4)c(F)c3)CO2)C1(C)O (stereo not shown) [Example 95] | 8 (≈ 8.98 µM) | 8 (≈ 8.98 µM)
19 | CC[C@H]1OC(=O)[C@@](C)(F)C(=O)[C@H](C)[C@@H](O[C@@H]2O[C@H](C)C[C@H](N(C)C)[C@H]2O)[C@@]2(C)C[C@@H](C)C(=NC(=O)C(C)C)[C@H](C)[C@@H](OC/C(=N\OCc3ncc(-c4cccc(N)n4)cn3)CO2)[C@]1(C)O [Example 100] | 8 (≈ 8.75 µM) | 8 (≈ 8.75 µM)
20 | CCC1OC(=O)C(C)(F)C(=O)C(C)C(OC2OC(C)CC(N(C)C)C2O)C2(C)CC(C)C(=NC(=O)C3CC3)C(C)C(OCC(=NOCc3ccc(-c4cccc(N)n4)cn3)CO2)C1(C)O (stereo not shown) [Example 77] | 8 (≈ 8.78 µM) | 8 (≈ 8.78 µM)
21 | CC[C@H]1OC(=O)[C@@](C)(F)C(=O)[C@H](C)[C@@H](O[C@@H]2O[C@H](C)C[C@H](N(C)C)[C@H]2O)[C@@]2(C)C[C@@H](C)C(=NC(=O)C(C)C)[C@H](C)[C@@H](OC/C(=N\OCc3ccc(-c4nsc(N)n4)cn3)CO2)[C@]1(C)O [Example 130] | 2.00 (≈ 2.17 µM) | 4.00 (≈ 4.35 µM)
22 | CCC1OC(=O)C(C)(F)C(=O)C(C)C(OC2OC(C)CC(N(C)C)C2O)C2(C)CC(C)C(=NC(C)=O)C(C)C(OCC(=NOCc3ccc(-n4ccc(N)n4)cc3F)CO2)C1(C)O (stereo not shown) [Example 85] | 4 (≈ 4.49 µM) | 8 (≈ 8.98 µM)
23 | CC[C@H]1OC(=O)[C@@](C)(F)C(=O)[C@H](C)[C@@H](O[C@@H]2O[C@H](C)C[C@H](N(C)C)[C@H]2O)[C@@]2(C)C[C@@H](C)C(=NC(C)=O)[C@H](C)[C@@H](OC/C(=N\OCc3cnc(-c4cccc(N)n4)cn3)CO2)[C@]1(C)O [Example 103] | 8 (≈ 9.03 µM) | 8 (≈ 9.03 µM)
